Tested on: orthotopic MBT-2 mouse bladder tumors
Test: Antitumour activity (survival) in C3H/HEJ mice bearing orthotopic MBT-2 mouse bladder tumors
Assay type: in vivo
Details: female C3H/HeJ mice, vinflunine ditartrate 12 mg/kg IP (Q2D×3)×2W
Protocol: The antitumour activity of vinflunine alone or in combination with an anti-PD1 antibody was evaluated in C3H/HEJ mice bearing orthotopic MBT-2 mouse bladder tumors.
Vinflunine ditartrate is administered to mice at a concentration of 1.2 mg/ml in a saline buffer (0.9% NaCl).
The anti-PD1 antibody (clone: RMP1-14, catalog: BE0146, B/N: 5311-10/0914B, Bioxcell), is administered to mice at a concentration of 1 mg/ml in PBS. […] 2005 Aug. 1; 175(3):1586-92.
Vinflunine ditartrate has been injected at 12 mg/kg,
The anti-PD1 antibody has been injected at 10 mg/kg/inj.
Vinflunine ditartrate and the anti-PD1 antibody have been administered at a dose volume of 10 ml/kg/adm (i.e for one mouse weighing 20 g, 200 μl has been administered).
Vinflunine ditartrate has been injected intraperitoneally (IP) into the peritoneal cavity of mice.
The anti-PD-1 antibody has been injected intraperitoneally (IP) into the peritoneal cavity of mice. […]
Tumor cells have been e grown as monolayer at 37° C. in a humidified atmosphere (5% CO2, 95% air). […] The cells have been counted in a hemocytometer and their viability has been assessed by 0.25% trypan blue exclusion assay. […]
Antitumour activity of vinflunine ditartrate alone, anti-PD1 antibody alone or of the combination was evaluated against MBT-2 cells orthotopically implanted by instillation C3H/HEJ mice. […]

20′,20′-difluoro-3′,4′-dihydrovinorelbine [vinflunine]
ILS: Increase of Life Span (compared to vehicle) (%) (ILS=T/C−100 (median day of death treated/control), anti-PD1 10 mg/kg/inj IP TW×2): 46% | Survival gain (compared to vehicle) Median (anti-PD1 antibody 10 mg/kg/inj IP TW×2, treatment from D3, relative to vehicle): 10 days
